Measured values as given in paper PMC11249626, “Fluorophore-Labeled Pyrrolones Targeting the Intracellular Allosteric Binding Site of the Chemokine Receptor CCR1” (ACS Pharmacology & Translational Science, 2024).
In brackets after ≈: the same amount, converted by molar mass. One block for each compound: values may come before it.

Tests used:
[1] = Kinetic solubility assay (nephelometry); type: physicochemical; conditions: aqueous buffer, kinetic from dmso stock; saline phosphate buffer pH 7.25, 1% DMSO, 25 °C, ± SD; read-out: kinetic solubility Skin
CCR1 [2] = biological target: T1, CCR1 (Homo sapiens, UniProt P32246); assay: Membrane-based NanoBRET competition assay with 12 (2000 nM) and CCR1_Nluc membranes; type: binding; set-up: Promega pNLF1-C (Nluc) #CCR010TN00; host or cells: HEK293T, transient (PEI); conditions: for Ki: read-out: Ki, CCR1 (converted)
T1 sequence (P32246 1-355): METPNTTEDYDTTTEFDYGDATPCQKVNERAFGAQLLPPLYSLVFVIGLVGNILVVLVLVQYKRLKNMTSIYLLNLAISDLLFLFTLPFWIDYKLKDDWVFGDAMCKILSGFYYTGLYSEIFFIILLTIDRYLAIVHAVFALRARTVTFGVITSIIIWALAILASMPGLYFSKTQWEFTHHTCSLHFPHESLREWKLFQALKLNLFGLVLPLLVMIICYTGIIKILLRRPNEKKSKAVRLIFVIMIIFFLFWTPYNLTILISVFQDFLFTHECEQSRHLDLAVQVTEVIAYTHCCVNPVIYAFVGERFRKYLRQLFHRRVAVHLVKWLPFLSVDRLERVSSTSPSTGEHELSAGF

CCR1 [3] = biological target: T1, CCR1; assay: Membrane-based NanoBRET competition kinetic assay with 12 (1000 nM) and CCR1_Nluc membranes; type: binding; set-up: Promega pNLF1-C (Nluc) #CCR010TN00; host or cells: HEK293T, transient (PEI)
CCR2 = biological target: T2, CCR2 (Homo sapiens, UniProt P41597); assay: Membrane-based NanoBRET saturation binding assay, CCR2_GSSG_Nluc membranes
T2 construct: host or cells: HEK293T, transient
T2 sequence (P41597 1-360 isoform P41597-2): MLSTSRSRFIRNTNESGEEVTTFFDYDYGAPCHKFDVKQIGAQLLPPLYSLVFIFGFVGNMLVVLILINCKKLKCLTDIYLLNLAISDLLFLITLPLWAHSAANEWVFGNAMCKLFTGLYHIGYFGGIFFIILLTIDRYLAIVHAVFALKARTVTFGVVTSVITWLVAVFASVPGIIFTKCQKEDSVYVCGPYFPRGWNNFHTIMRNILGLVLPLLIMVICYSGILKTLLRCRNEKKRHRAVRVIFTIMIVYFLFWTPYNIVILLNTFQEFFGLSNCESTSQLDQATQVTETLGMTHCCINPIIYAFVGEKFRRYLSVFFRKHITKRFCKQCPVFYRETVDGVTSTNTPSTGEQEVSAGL
Description: Emission spectra of Nluc -labeled CCR1 (CCR1_Nluc) protein: The emission spectra of CCR1_Nluc has already been reported by Toy et al.1 For a confirmation of the reported data with new CCR1_Nluc membrane batches, furimazine (Promega, Mannheim, Germany 1:2000) was added to the membrane preparations (2 µg protein/well). […]
NanoBRET binding assays: Membrane-based NanoBRET saturation assay: For the establishment of our NanoBRET binding assay, we referred to recently published protocols. […]
Then, 20 µL of the membrane preparations diluted in assay buffer (3 µg total protein/well) were added and the plates were incubated for 90 min at 37 °C. Subsequently, 5 µL of a furimazine solution (Promega, Mannheim, Germany, final assay dilution: 1:5,000) were added to each well (final assay volume: 35 µL) before measuring luminescence with a CLARIOstar microplate reader using 620/10 nm and 475/30 nm emission filters after 5 min of incubation in the dark. Bioluminescence resonance energy transfer (BRET) was determined as the ratio of acceptor fluorescence and donor luminescence. […] Specific binding signals were calculated as a difference of total and non-specific binding. If required, netBRET values were calculated as the difference between total BRET values and the values obtained in the absence of a fluorescent ligand. […]

[4] = 12 (2000 nM), CCR1_Nluc membranes

solubility kinetic at 10 s [1]: 442 ± 27 µM (≈ 185 µg/mL) | Ki (CCR1 [2]; [4]): 100 nM | CCR1 over CCR2 binding selectivity (CCR1 [2]; NanoBRET competition binding assays): at least 172 fold
Structure (SMILES): O=C(C1=C(O)C(=O)N(CCc2ccc(O)cc2)C1c1ccc(F)cc1)c1ccccc1 (racemic) [compound 23]

pKi ± SEM, CCR1 (CCR1 [2]; [4]): 7.96 ± 0.10 | Ki (CCR1 [2]; [4]): 11.8 nM | koff (CCR1 [3]; CCR1_Nluc membranes): 0.0019 s⁻¹ | kon (CCR1 [3]; CCR1_Nluc membranes): 723000 M⁻¹ s⁻¹ | tr (kinetic competition) (CCR1 [3]; CCR1_Nluc membranes): 9.1 ± 0.5 min | Ki (CCR1 [3]; kinetic competition, read-out: Ki(kin.)): 2.63 nM
Structure (SMILES): CC(=O)C1=C(O)C(=O)N(c2ccc(Br)cc2F)C1C1CCCCC1 (centres unmarked) [compound 5, reference compound]

Kd (CCR2): 1980 ± 270 nM
Structure (SMILES): CN(C)c1ccc2c(-c3cc(C(=O)NCCOCCOCc4cn(CCCC(=O)C5=C(O)C(=O)N(c6ccc(Cl)cc6F)C5C5CCCCC5)nn4)ccc3C(=O)[O-])c3ccc(=[N+](C)C)cc-3oc2c1 (centres unmarked) [compound 11]

Kd (CCR2): 1690 ± 310 nM
Structure (SMILES): CN(C)c1ccc2c(-c3cc(C(=O)NCCOCCOCc4cn(CCCC(=O)C5=C(O)C(=O)N(c6ccc(Br)cc6F)C5C5CCCCC5)nn4)ccc3C(=O)[O-])c3ccc(=[N+](C)C)cc-3oc2c1 (centres unmarked) [compound 12]
